Measured values reported in ChEMBL document CHEMBL1201862, “PubChem BioAssay data set” (2004).
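Interpolation was linear, between the two tested concentrations surrounding the appropriate level; five concentrations were tested over 48 hours in 96-well plates. GI50 marks 50% less growth.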 The source made the active and inactive calls. Rule as the data show it: active = GI50 up to about 1.1 µM and inactive = higher.

Columns and labels:
Test in all cases: inhibition of tumour cell growth, NCI panel, 48 h
K562 = tested on: K562
Malme-3M = tested on: Malme-3M
SF-295 = tested on: SF-295
OVCAR-4 = tested on: OVCAR-4
HCT-15 = tested on: HCT-15
CCRF-CEM = tested on: CCRF-CEM
MDA-N = tested on: MDA-N
HCT-116 = tested on: HCT-116
LOX IMVI = tested on: LOX IMVI
EKVX = tested on: EKVX
RXF 393 = tested on: RXF 393
SF-539 = tested on: SF-539
SNB-19 = tested on: SNB-19
BT-549 = tested on: BT-549
RPMI-8226 = tested on: RPMI-8226
DU-145 = tested on: DU-145
M14 = tested on: M14
SK-MEL-28 = tested on: SK-MEL-28
OVCAR-3 = tested on: OVCAR-3
M19-MEL = tested on: M19-MEL

Row | SMILES | GI50 (K562) | GI50 (Malme-3M) | GI50 (SF-295) | GI50 (OVCAR-4) | GI50 (HCT-15) | GI50 (CCRF-CEM) | GI50 (MDA-N) | GI50 (HCT-116) | GI50 (LOX IMVI) | GI50 (EKVX) | GI50 (RXF 393) | GI50 (SF-539) | GI50 (SNB-19) | GI50 (BT-549) | GI50 (RPMI-8226) | GI50 (DU-145) | GI50 (M14) | GI50 (SK-MEL-28) | GI50 (OVCAR-3) | GI50 (M19-MEL)
1 | CN(C)c1ccc(/C=C(\NC(=O)c2ccccc2)C(=O)NC(CCC(=O)O)C(=O)O)cc1 (stereo unspecified) | > 100 µM (inactive) | > 100 µM (inactive) | > 100 µM (inactive) | > 100 µM (inactive) | > 100 µM | > 100 µM (inactive) | > 100 µM (inactive) | > 100 µM (inactive) | > 100 µM (inactive) | > 100 µM (inactive) | > 100 µM (inactive) | > 100 µM (inactive) | > 100 µM (inactive) | > 100 µM (inactive) | > 100 µM (inactive) | > 100 µM (inactive) | > 100 µM (inactive) | > 100 µM (inactive) | > 100 µM (inactive) | 
2 | CC(c1ccccc1)N1CC(C)(c2ccccc2)N(O)C(c2ccccc2)C1C (stereo unspecified) | 7.28 µM (inactive) | 18.8 µM (inactive) | 7.85 µM (inactive) |  |  | 5.66 µM (inactive) |  | 3.38 µM (inactive) | 12.2 µM (inactive) | 13.5 µM (inactive) | 4.41 µM (inactive) | 5.73 µM (inactive) | 5.92 µM (inactive) |  | 3.75 µM (inactive) |  |  | 4.08 µM (inactive) | 11.6 µM (inactive) | > 10 µM (inactive)
3 | Cc1ccc2c(=O)[nH]sc2c1 | 5.58 µM (inactive) | 20.4 µM (inactive) | 54.5 µM (inactive) | 27.9 µM (inactive) | 14.6 µM | 3.26 µM (inactive) | 14 µM (inactive) | 31.9 µM (inactive) | 16.1 µM (inactive) | 14.9 µM (inactive) | 15.3 µM (inactive) | 12.6 µM (inactive) | 39.4 µM (inactive) | 15.4 µM (inactive) | 5.31 µM (inactive) | 88.1 µM (inactive) | 11.7 µM (inactive) | 17.9 µM (inactive) | 17.8 µM (inactive) | 
4 | CSC1=N/C(=C\c2ccco2)C(=O)N1CN1CCOCC1 | 42.5 µM (inactive) | > 46.1 µM (inactive) | > 100 µM (inactive) | > 100 µM (inactive) | 33.7 µM | 30.4 µM (inactive) | > 100 µM (inactive) | 29.2 µM (inactive) | 30.7 µM (inactive) | > 79.1 µM (inactive) | 20.4 µM (inactive) | 17.2 µM (inactive) | > 93.1 µM (inactive) | 19.4 µM (inactive) | 32.7 µM (inactive) | 42.3 µM (inactive) | > 92.3 µM (inactive) | > 71.6 µM (inactive) | > 100 µM (inactive) | 
5 | O=c1[nH]nc(-c2cccc([N+](=O)[O-])c2)[nH]1 | > 100 µM (inactive) | > 100 µM (inactive) | > 100 µM (inactive) | > 100 µM (inactive) | > 100 µM | > 100 µM (inactive) | > 100 µM (inactive) | > 100 µM (inactive) | > 100 µM (inactive) | 8.34 µM (inactive) | > 100 µM (inactive) | > 100 µM (inactive) | > 100 µM (inactive) | > 100 µM (inactive) | > 100 µM (inactive) | > 100 µM (inactive) | > 100 µM (inactive) | > 100 µM (inactive) | > 100 µM (inactive) | 
6 | c1ccc(C2[C@@H]3CCCc4ccccc4C3=NN2c2ccccc2)cc1 (stereo partly specified) | 32.7 µM (inactive) | > 100 µM (inactive) | > 100 µM (inactive) | 49.5 µM (inactive) | 52.5 µM | 87.7 µM (inactive) |  | 42 µM (inactive) | 40.8 µM (inactive) | 46.8 µM (inactive) | 92.3 µM (inactive) |  | > 100 µM (inactive) |  | 40.7 µM (inactive) |  |  | > 100 µM (inactive) | 31.8 µM (inactive) | > 100 µM (inactive)
7 | Oc1cc(-c2ccccn2)nc2ccc(Cl)cc12 | 12.8 µM (inactive) | 21.7 µM (inactive) |  | 47.1 µM (inactive) |  | 36.5 µM (inactive) |  |  | 30.8 µM (inactive) | 44 µM (inactive) |  | 31.8 µM (inactive) | > 100 µM (inactive) |  | 18.2 µM (inactive) |  | 36.9 µM (inactive) | 34.8 µM (inactive) |  | 24.8 µM (inactive)
8 | CO[C@H]1C[C@H](n2cc(C)c(=O)[nH]c2=O)O[C@@H]1CO | > 100 µM (inactive) | > 100 µM (inactive) | > 100 µM (inactive) | > 100 µM (inactive) | > 100 µM | > 100 µM (inactive) | > 100 µM (inactive) | > 100 µM (inactive) | > 100 µM (inactive) | > 100 µM (inactive) | > 100 µM (inactive) | > 100 µM (inactive) | > 100 µM (inactive) | > 100 µM (inactive) | > 100 µM (inactive) | > 100 µM (inactive) | > 100 µM (inactive) | > 100 µM (inactive) | > 100 µM (inactive) | 
